Literature values in publication PMC6270667, “Loddigesiinols G–J: α-Glucosidase Inhibitors from Dendrobium loddigesii” (Molecules, 2014).

Target: α-glucosidase (Saccharomyces cerevisiae, UniProt P53341)
Set-up: method as in PMID 16478243
Details: reported in the literature

Chain of α-glucosidase (P53341 whole entry): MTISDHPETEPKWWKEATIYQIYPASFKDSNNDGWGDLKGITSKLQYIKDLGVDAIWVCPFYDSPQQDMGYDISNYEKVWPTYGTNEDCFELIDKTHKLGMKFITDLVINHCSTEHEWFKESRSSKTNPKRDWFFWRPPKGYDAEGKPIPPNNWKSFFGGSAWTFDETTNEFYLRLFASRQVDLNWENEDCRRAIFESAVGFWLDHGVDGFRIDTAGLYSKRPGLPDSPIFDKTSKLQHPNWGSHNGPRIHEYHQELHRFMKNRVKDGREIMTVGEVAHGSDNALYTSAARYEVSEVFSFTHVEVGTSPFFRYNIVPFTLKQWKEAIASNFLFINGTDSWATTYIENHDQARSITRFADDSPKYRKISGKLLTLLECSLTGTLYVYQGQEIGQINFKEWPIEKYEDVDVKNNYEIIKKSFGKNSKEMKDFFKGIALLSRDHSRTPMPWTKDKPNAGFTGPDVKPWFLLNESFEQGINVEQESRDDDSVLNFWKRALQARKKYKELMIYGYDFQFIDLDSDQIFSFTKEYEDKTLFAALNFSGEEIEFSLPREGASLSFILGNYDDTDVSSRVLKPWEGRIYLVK

SMILES: Oc1ccc(/C=C/c2cc(O)cc(O)c2)cc1 [trans-Resveratrol, trans-resveratrol]
- α-glucosidase inhibitory effect compared with the clinical drug acarbose: more potent inhibitory effect than the clinical drug acarbose
